Assay results taken from patent US20160262390A1, “FIELD APPLICATION OF SUGARS TO INCREASE CROP YIELD” (Minn-Dak Farmers Cooperative, priority 2015, published 2016).

Key:
[1] = tested on: microflora that are present in the soil; experiment: Solvita Soil CO2-Burst test of pre-emergent soil samples, soybean trial in Hickson
Protocol: In an attempt to quantify this boost, soil samples were taken during some of the previously discussed trials. These samples were tested using a standard Solvita Soil CO2-Burst Test Kit to generate measurements associated with CO2 respiration which can be used as an indicator of active soil carbon, soil microbial biomass and the potential for nutrient release beneficial to crop production. Generally, the higher the measured levels of CO2, the more advantageous the soil is for crop production.
The results of the CO2-Burst Testing are summarized in Table 17 below (using the replication designations from Table 7): […]

sugarbeets = experiment: Pre-planting sugar application on sugarbeets, Foxhome; format: in vivo, sugarbeet; conditions: for Recoverable Sugar Yield / Recoverable Sugar Yield Increase Compared to Check Average / Sugarbeet Yield: MN; for number of treatments showing yield improvement compared to check average: six rates (25-250 pounds/Acre) per sugar, thirty in all
Protocol: (§1) The field trials were conducted simultaneously in two different planting locations for each of the crops. One location was near the community of Foxhome in Wilkin County, Minnesota (hereafter referred to as “Foxhome”) while the second location was near the community of Hickson in Cass County, North Dakota (hereafter referred to as “Hickson”). The Foxhome and Hickson locations are on opposite sides of the Red River along the border of Minnesota and North Dakota and separated by a distance exceeding 40 miles. Generally, the Foxhome location has heavier clay loam soil conditions while Hickson has sandy loam soil conditions.
(§2) At each of the Foxhome and Hickson locations, a total of thirty two (32) treatments were conducted for each crop (sugarbeets, soybeans, corn, wheat). Each treatment was replicated four times arranged in a Randomized Complete Block (RCB) Design in the same field. Each replication consisted of a plot measuring twenty five (25) feet in length and eleven (11) feet in width. In selecting the particular seed types for evaluation, popular commercial varieties to the region were utilized. For the row crops (sugarbeets, soybeans, corn) each replication included a width of six (6) rows with twenty two (22) inch row spacing and having a row length of twenty five (25) feet. The wheat was planted in accordance with standard commercial practices. To reduce/eliminate any treatment impacts between adjacent plots for the crops, only the four (4) interior rows of each plot were treated and evaluated for row crops, while for wheat, only the interior 7.33 feet of each plot were treated and evaluated. With the exception of the treatment program applied to the individual plots, which will be discussed below, conventional commercial growing practices for each planting location were otherwise followed during the field trials.
(§3) The treatment regimen at each location for each of the tested crops included two (2) untreated treatments (Treatments 31 and 32) in which no sugar was applied and constitute the control elements. […] Six (6) treatments (Treatments 13-18) included the liquid application of high fructose corn syrup (hereafter “HFCS”) at varying rates. Six treatments (Treatments 19-24) included the liquid application of dextrose (hereafter “LIQDEX”) at varying rates. Six (6) treatments (Treatments 25-30) included the application of powdered cellulose (hereafter “POWCEL”) at varying rates. For the sugar applied in a solid form, granulated or powdered, field application was conducted via conventional broadcast spreading. For the sugar applied in a liquid form, a liquid concentrate was mixed and diluted with water in a tank and a conventional sprayer was configured such that the liquid was sprayed so as to have the same sugar equivalent (measured in pounds/per acre) as the sugar in solid form. Regardless of whether the sugar was applied as a solid or liquid, the sugar was applied directly onto the soil before spring tillage, lightly worked into the ground and followed by planting of the crop seed in the treated ground. A summary of application rates for each plot treatments are contained in Table 7 below and were used consistently with each of the crops (sugarbeets, soybeans, corn, wheat).
To test the impact of pre-planting application rates and sugar source on sugarbeets, identical field trials using Crystal® brand ACH 260 sugarbeet seed were conducted at the Foxhome and Hickson locations. Planting of the sugarbeet seed and harvest of the sugarbeets were conducted on as close to the same dates as practical so as to have essentially the same length growing season.

corn = experiment: Pre-planting sugar application on corn, Hickson; format: in vivo; conditions: for Yield / Yield Increase Compared to Check Average: ND; for number of treatments showing yield improvement compared to check average: six rates (25-250 pounds/Acre) per sugar, thirty in all
Protocol: as §1
as §2, with “trials. While the individual plots at the same location, Hickson or Foxhome, experienced essentially the same growing conditions throughout the season, there were various differences associated with localized precipitation, general growing conditions, soil classification and the like, which contributed to performance differences between the Hickson and Foxhome locations.” for “trials.”
as §3
To test the impact of pre-planting application rates and sugar source on corn, identical field trials using Peterson Farms brand corn seed were conducted at the Foxhome and Hickson locations. Planting of the corn seed and harvest of the corn were conducted on the same dates so as to have essentially the same growing season. […]

Structure (SMILES)	CO2 Burst ppm ([1]; sugar amount 50 pounds/acre) [ppm]	CO2 Increase as Compared to Check Average ([1]; sugar amount 50 pounds/acre) [%]	CO2 Burst ppm ([1]; sugar amount 150 pounds/acre) [ppm]	CO2 Increase as Compared to Check Average ([1]; sugar amount 150 pounds/acre) [%]	CO2 Burst ppm ([1]; sugar amount 250 pounds/acre) [ppm]	CO2 Increase as Compared to Check Average ([1]; sugar amount 250 pounds/acre) [%]	Recoverable Sugar Yield (sugarbeets; pre-planting 25 pounds/Acre) [Pounds/Acre]	Recoverable Sugar Yield Increase Compared to Check Average (sugarbeets; pre-planting 25 pounds/Acre) [%]	Sugarbeet Yield (sugarbeets; pre-planting 25 pounds/Acre) [Tons/Acre]	Recoverable Sugar Yield (sugarbeets; pre-planting 50 pounds/Acre) [Pounds/Acre]	Recoverable Sugar Yield Increase Compared to Check Average (sugarbeets; pre-planting 50 pounds/Acre) [%]	Sugarbeet Yield (sugarbeets; pre-planting 50 pounds/Acre) [Tons/Acre]	Recoverable Sugar Yield (sugarbeets; pre-planting 100 pounds/Acre) [Pounds/Acre]	Recoverable Sugar Yield Increase Compared to Check Average (sugarbeets; pre-planting 100 pounds/Acre) [%]	Sugarbeet Yield (sugarbeets; pre-planting 100 pounds/Acre) [Tons/Acre]	Recoverable Sugar Yield (sugarbeets; pre-planting 150 pounds/Acre) [Pounds/Acre]	Recoverable Sugar Yield Increase Compared to Check Average (sugarbeets; pre-planting 150 pounds/Acre) [%]	Sugarbeet Yield (sugarbeets; pre-planting 150 pounds/Acre) [Tons/Acre]	Recoverable Sugar Yield (sugarbeets; pre-planting 200 pounds/Acre) [Pounds/Acre]	Recoverable Sugar Yield Increase Compared to Check Average (sugarbeets; pre-planting 200 pounds/Acre) [%]	further results
OC[C@H]1O[C@@](CO)(O[C@H]2O[C@H](CO)[C@@H](O)[C@H](O)[C@H]2O)[C@@H](O)[C@@H]1O [GS, sucrose]	63	38.46	75	64.84	53	16.48	8856	3.25	32.03	8707	1.52	32.27	8100	−5.56	30.85	9080	5.86	31.94	8345	−2.70	Sugarbeet Yield (sugarbeets; pre-planting 200 pounds/Acre): 30.69 Tons/Acre; Recoverable Sugar Yield (sugarbeets; pre-planting 250 pounds/Acre): 9002 Pounds/Acre; Recoverable Sugar Yield Increase Compared to Check Average (sugarbeets; pre-planting 250 pounds/Acre): 4.96%; Sugarbeet Yield (sugarbeets; pre-planting 250 pounds/Acre): 31.80 Tons/Acre; number of treatments showing yield improvement compared to check average (sugarbeets): four of the six; Yield (corn; pre-planting 25 pounds/Acre): 188.56 Bushels/Acre; Yield Increase Compared to Check Average (corn; pre-planting 25 pounds/Acre): 22.03%; Yield (corn; pre-planting 50 pounds/Acre): 153.24 Bushels/Acre; Yield Increase Compared to Check Average (corn; pre-planting 50 pounds/Acre): −0.83%; Yield (corn; pre-planting 100 pounds/Acre): 165.78 Bushels/Acre; Yield Increase Compared to Check Average (corn; pre-planting 100 pounds/Acre): 7.29%; Yield (corn; pre-planting 150 pounds/Acre): 161.20 Bushels/Acre; Yield Increase Compared to Check Average (corn; pre-planting 150 pounds/Acre): 4.32%; Yield (corn; pre-planting 200 pounds/Acre): 163.58 Bushels/Acre; Yield Increase Compared to Check Average (corn; pre-planting 200 pounds/Acre): 5.86%; Yield (corn; pre-planting 250 pounds/Acre): 156.06 Bushels/Acre; Yield Increase Compared to Check Average (corn; pre-planting 250 pounds/Acre): 1.00%; number of treatments showing yield improvement compared to check average (corn): five of the six
OC[C@H]1O[C@@](CO)(O[C@H]2O[C@H](CO)[C@@H](O)[C@H](O)[C@H]2O)[C@@H](O)[C@@H]1O [LIQSUC, sucrose]	49	7.69	45	−1.10	55	20.88	8629	0.61	32.17	8627	0.58	31.21	8592	0.17	31.79	8646	0.80	30.26	8473	−1.21	Sugarbeet Yield (sugarbeets; pre-planting 200 pounds/Acre): 30.23 Tons/Acre; Recoverable Sugar Yield (sugarbeets; pre-planting 250 pounds/Acre): 8424 Pounds/Acre; Sugarbeet Yield (sugarbeets; pre-planting 250 pounds/Acre): 31.04 Tons/Acre; number of treatments showing yield improvement compared to check average (sugarbeets): four of the six; Yield (corn; pre-planting 25 pounds/Acre): 163.69 Bushels/Acre; Yield Increase Compared to Check Average (corn; pre-planting 25 pounds/Acre): 5.93%; Yield (corn; pre-planting 50 pounds/Acre): 162.57 Bushels/Acre; Yield Increase Compared to Check Average (corn; pre-planting 50 pounds/Acre): 5.21%; Yield (corn; pre-planting 100 pounds/Acre): 160.94 Bushels/Acre; Yield Increase Compared to Check Average (corn; pre-planting 100 pounds/Acre): 4.15%; Yield (corn; pre-planting 150 pounds/Acre): 165.35 Bushels/Acre; Yield Increase Compared to Check Average (corn; pre-planting 150 pounds/Acre): 7.01%; Yield (corn; pre-planting 200 pounds/Acre): 164.24 Bushels/Acre; Yield Increase Compared to Check Average (corn; pre-planting 200 pounds/Acre): 6.29%; Yield (corn; pre-planting 250 pounds/Acre): 166.53 Bushels/Acre; Yield Increase Compared to Check Average (corn; pre-planting 250 pounds/Acre): 7.77%; number of treatments showing yield improvement compared to check average (corn): each of their six
